The values below come from patent US5534416A, “Fluorescent viability assay using cyclic-substituted unsymmetrical cyanine dyes” (Molecular Probes, Inc., priority 1993, dated 1996).

One data set concerns nucleic acids. Put plainly: Excitation/emission maxima of dyes complexed with nucleic acids. It is filed as physicochemical. Set-up: key: wavelength in nm. As to conditions: Table 2; dye complexed with nucleic acids. The source says:
Dye I is lightly colored and is virtually non-fluorescent when diluted in aqueous solution according to the method of the invention. Dye I is highly membrane-permeant and labels all cells, whether live or dead. When Dye I binds with intracellular nucleic acid polymers such as DNA and RNA, the resultant dye-nucleic acid complex becomes extremely fluorescent upon illumination. The quantum yield of the preferred Dye I/DNA complex is greater than 0.02, typically greater than 0.1, preferably greater than 0.2, and more preferably greater than 0.3. Typically, Dye I combines with intracellular nucleic acids to give a green or red fluorescence. When excited at a wavelength between about 300 nm and about 500 nm, the dyes complexed with nucleic acids have an emission maximum between about 500 and about 610 nm (see Table 2). Preferably, Dye I complexed with nucleic acids has an emission maximum of between about 500 nm and about 535 nm, resulting in a true green fluorescent signal in cells of the sample where Dye I is present alone.

Another data set relates to DNA. The experiment in a line: Quantum yield of dye on DNA versus fluorescein. It is filed as physicochemical. Conditions: Table 2; Tris buffered saline pH 10; fluorescein assumed 0.92. The source says: ^ Quantum yield (QY) of dye on DNA (standard solution in Tris buffere
saline adjusted to pH 10) in comparison with fluorescein, which is assume
to have a quantum yield of 0.92 under the test conditions.
Factors such as degree of fluorescence enhancement with nucleic acid binding, self quenching, molar extinction coefficient, membrane permeability, intracellular partitioning, nucleic acid binding affinity, and quantum yield contribute to the overall fluorescence of nucleic acid stains in cells. Enhanced cell fluorescence obtained with Dye I is related to unexpected properties other than quantum yield alone. Quantum yield is determined as described above (foot note to Table 2). Normalized quantum yield is determined to illustrate the fold-change in quantum yield of Dye I compared with thiazole orange, a related cell-permeant dye. The normalized fluorescence values represent the quantum yield of each dye divided by the quantum yield of thiazole orange. Fluorescence per cell is also scaled to thiazole orange values for both E. coli and S. aureus to allow direct comparison between relative (normalized) quantum yield and relative (normalized) fluorescence/cell.

The next data set has as its system calf thymus DNA. Conditions: Table 5; bound to excess calf thymus DNA (50 bp/dye); cited from earlier work.

For the compound `C[n+]1c(C=C2C=C(OS(=O)(=O)C(F)(F)F)N(c3ccccc3)c3ccccc32)sc2ccccc21` [compound 854], in the data set on nucleic acids, the EM max worked out at 520 and the EX max is listed as 483.

Turning to `CN1C(c2ccccc2)=CC(=Cc2sc3ccccc3[n+]2C)c2ccccc21` [compound 639], in the data set with nucleic acids, the EM max is listed as 548 and the EX max amounted to 513. Moreover, the “QY (DNA)” value in the data set on DNA amounted to 0.20.

`C[n+]1c(C=CC=C2C=CN(CCC[N+](C)(C)CCC[N+](C)(C)CCCN3C=CC(=CC=Cc4sc5ccccc5[n+]4C)c4ccccc43)c3ccccc32)sc2ccccc21` [TOTO-3]: in the data set on calf thymus DNA, the EM max is 660 nm and the EX max is reported as 642 nm.

In the data set on nucleic acids, `C[n+]1c(C=C2C=C(c3ccccc3)N(c3ccccc3)c3ccccc32)sc2ccccc21` [compound 630] had an EM max of 544 and an EX max of 517. For the same compound, the “QY (DNA)” value in the data set with DNA is 0.19.

For the compound `CSC1=CC(=Cc2sc3ccccc3[n+]2C)c2ccccc2N1c1ccccc1` [compound 641], in the data set with nucleic acids, the EM max worked out at 526 and the EX max is on record as 503. Moreover, in the data set on DNA, the “QY (DNA)” value was found to be 0.35.

Turning to `C[n+]1c(C=C2C=C(Sc3ccccn3)N(c3ccccc3)c3ccccc32)sc2ccccc21` [compound 853], in the data set on nucleic acids, the EM max came to 555 and the EX max is listed as 516.

In the data set on nucleic acids, `COc1ccc2c(c1)N(c1ccccc1)C(Cl)=CC2=Cc1sc2ccccc2[n+]1C` [compound 5103] returned an EM max of 530 and an EX max of 511. The “QY (DNA)” value in the data set on DNA came to 0.18.

As for `COc1ccccc1N1C=CC(=Cc2sc3ccccc3[n+]2C)C=C1Cl` [compound 616], in the data set on nucleic acids, the EM max was found to be 510 and the EX max is listed as 471.

Regarding `C[n+]1c(C=CC=C2C=CN(CCC[N+](C)(C)CCC[N+](C)(C)CCCN3C=CC(=CC=Cc4oc5ccccc5[n+]4C)c4ccccc43)c3ccccc32)oc2ccccc21` [YOYO-3], in the data set with calf thymus DNA, the EM max is listed as 631 nm and the EX max is 612 nm.

On to `C[n+]1c(C=CC=C2C=CN(CCC[N+](C)(C)C)c3ccccc32)oc2ccccc21` [YO-PRO-3], for which, in the data set with calf thymus DNA, the EM max is recorded as 631 nm and the EX max is 612 nm.

In the data set on nucleic acids, `CN1C(=Cc2cc(N3CCOCC3)[n+](C)c3ccccc23)Sc2ccccc21` [compound 752] showed an EM max of 518 and an EX max of 494. Also, the “QY (DNA)” value with DNA is recorded as 0.51.

As to `C[n+]1c(C=CC=C2C=CN(CCC[N+](C)(C)C)C=C2)sc2ccccc21` [BO-PRO-3], in the data set on calf thymus DNA, the EM max is 599 nm and the EX max is recorded as 575 nm.

As to `CC[n+]1c(-c2ccccc2)c2cc(N=[N+]=[N-])ccc2c2ccc(N)cc21` [Ethidium monoazide], in the data set on calf thymus DNA, the EM max was 615 nm and the EX max is recorded as 465 nm.

Regarding `C[n+]1c(C=C2C=C(Cl)N(c3ccccc3)c3ccccc32)oc2ccccc21` [compound 633], in the data set with nucleic acids, the EM max was 508 and the EX max came to 489. In the data set on DNA, the “QY (DNA)” value came to 0.12.

On to `CN1C(C2CCCCC2)=CC(=Cc2sc3ccccc3[n+]2C)c2ccccc21` [compound 6104], for which, in the data set on nucleic acids, the EM max was determined as 523 and the EX max is given as 505. Also, the “QY (DNA)” value in the data set on DNA was determined as 0.52.

With `C[n+]1c(C=C2C=CN(CCC[N+](C)(C)CCC[N+](C)(C)CCCN3C=CC(=Cc4oc5ccccc5[n+]4C)C=C3)C=C2)oc2ccccc21` [POPO-1], in the data set on calf thymus DNA, the EM max was 456 nm and the EX max is given as 434 nm.

In the case of `CN1C(=Cc2cc[n+](C3CCCCC3)c3ccccc23)Sc2ccccc21` [compound 73], in the data set with nucleic acids, the EM max is recorded as 525 and the EX max was 508. Further, in the data set with DNA, the “QY (DNA)” value was determined as 0.31.

As to `C[n+]1c(C=CC=C2C=CN(CCC[N+](C)(C)C)C=C2)oc2ccccc21` [PO-PRO-3], in the data set on calf thymus DNA, the EM max is 567 nm and the EX max was 539 nm.

With `C[n+]1c(C=C2C=CN(CCC[N+](C)(C)CCC[N+](C)(C)CCCN3C=CC(=Cc4sc5ccccc5[n+]4C)C=C3)C=C2)sc2ccccc21` [BOBO-1], in the data set on calf thymus DNA, the EM max is listed as 481 nm and the EX max is given as 462 nm.

With `CCCCc1cc(C=C2Sc3ccccc3N2C)c2ccccc2[n+]1-c1cccs1` [compound 71], in the data set on nucleic acids, the EM max is reported as 526 and the EX max is recorded as 508. The “QY (DNA)” value with DNA is 0.31.

Regarding `C[n+]1c(C=C2C=CN(CCC[N+](C)(C)CCC[N+](C)(C)CCCN3C=CC(=Cc4sc5ccccc5[n+]4C)c4ccccc43)c3ccccc32)sc2ccccc21` [TOTO-1], in the data set on calf thymus DNA, the EM max was 533 nm and the EX max was 514 nm.

In the data set on nucleic acids, `CCCCC1=CC(=CC=Cc2sc3ccccc3[n+]2C)c2ccccc2N1c1ccccc1` [compound 621] gave an EM max of 656 and an EX max of 635.

In the data set with nucleic acids, `CC(C)OC1=CC(=Cc2sc3ccccc3[n+]2C)c2ccccc2N1c1ccccc1` [compound 764] yielded an EM max of 508 and an EX max of 486. The “QY (DNA)” value in the data set with DNA is listed as 0.58.

In the data set on nucleic acids, `COc1ccc(N2C(Cl)=CC(=Cc3sc4ccccc4[n+]3C)c3ccccc32)cc1` [compound 582] returned an EM max of 533 and an EX max of 516.

In the case of `CCCN(CCC)C1=CC(=Cc2sc3ccccc3[n+]2C)c2ccccc2N1c1ccccc1` [compound 776], in the data set on DNA, the “QY (DNA)” value was found to be 0.65.

For the compound `CSC1=CC(=Cc2sc3ccccc3[n+]2C)c2ccccc2N1C1CCCCC1` [780 (S)], the “QY (DNA)” value in the data set with DNA stood at 0.31.

For the compound `CN1CCN(C2=CC(=Cc3sc4ccccc4[n+]3C)c3ccccc3N2c2ccccc2)CC1` [compound 856], in the data set on nucleic acids, the EM max is on record as 523 and the EX max came out at 502. Further, in the data set with DNA, the “QY (DNA)” value turned out to be 0.43.

In the data set with nucleic acids, `C[n+]1c(C=C2C=CN(c3ccccc3)C(Cl)=C2)sc2ccccc21` [compound 578] had an EM max of 504 and an EX max of 470.

With `C[n+]1c(C=C2C=CN(c3ccccc3)C=C2)sc2ccccc21` [compound 640], in the data set on nucleic acids, the EM max is given as 516 and the EX max turned out to be 471.

In the data set with nucleic acids, `COC1=CC(=CC=Cc2oc3ccccc3[n+]2C)c2ccccc2N1c1ccccc1` [compound 672] came in with an EM max of 611 and an EX max of 586.

For the compound `CN1C=CC(=Cc2sc3ccccc3[n+]2C)c2cccc(-c3ccccc3)c21` [compound 72], in the data set on nucleic acids, the EM max amounted to 535 and the EX max was 515. Also, in the data set on DNA, the “QY (DNA)” value was 0.026.

`CN1C(=Cc2cc(Cl)[n+](-c3cccs3)c3ccccc23)Sc2ccccc21` [compound 830]: in the data set with nucleic acids, the EM max was 533 and the EX max was determined as 517.

In the data set on nucleic acids, `C[n+]1c(C=C2C=C(Br)N(c3ccccc3)c3ccccc32)sc2ccccc21` [compound 774] gave an EM max of 533 and an EX max of 517.

In the data set with nucleic acids, `CCCCC1=CC(=CC=Cc2sc3ccccc3[n+]2C)C=CN1c1ccccc1` [compound 742] displayed an EM max of 611 and an EX max of 570.

Take `CCOC1=CC(=Cc2sc3ccccc3[n+]2C)c2ccccc2N1c1ccccc1` [compound 720]: in the data set with nucleic acids, the EM max worked out at 507 and the EX max is listed as 487. Further, the “QY (DNA)” value in the data set with DNA is given as 0.52.

In the data set with nucleic acids, `C[n+]1c(C=C2C=C(F)N(c3ccccc3)c3ccccc32)sc2ccccc21` [compound 834] displayed an EM max of 507 and an EX max of 486.

For the compound `CCN(CC)C1=CC(=Cc2sc3ccccc3[n+]2C)c2ccc(OC)cc2N1c1ccccc1` [compound 760], in the data set with nucleic acids, the EM max amounted to 510 and the EX max was 485. In addition, the “QY (DNA)” value in the data set on DNA worked out at 0.68.

In the data set on nucleic acids, `CN1C(=Cc2cc[n+](C3CCCCC3)c3ccccc23)Sc2ccccc21` [compound 542] came in with an EM max of 527 and an EX max of 510.

In the data set with nucleic acids, `C[n+]1c(C=C2C=C(C3CCCCC3)N(c3ccccc3)c3ccccc32)sc2ccccc21` [compound 765] yielded an EM max of 524 and an EX max of 506. Further, the “QY (DNA)” value in the data set on DNA was determined as 0.50.

As to `C[n+]1c(C=C2C=Cc3ccccc3N2c2ccccc2)sc2ccccc21` [compound 64], in the data set on nucleic acids, the EM max is recorded as 523 and the EX max is on record as 450.

As for `C[n+]1c(C=C2C=C(Oc3ccccc3)N(c3ccccc3)c3ccccc32)sc2ccccc21` [compound 835], in the data set on nucleic acids, the EM max came out at 518 and the EX max worked out at 495.

In the data set on nucleic acids, `C[n+]1c(C=C2C=C(Cl)N(C3CCCCC3)c3ccccc32)sc2ccccc21` [780 (Cl)] displayed an EM max of 536 and an EX max of 513. In the data set with DNA, the “QY (DNA)” value came to 0.09.

In the data set with nucleic acids, `CCN1C(=Cc2cc(Cl)[n+](-c3ccccc3)c3ccccc23)Sc2ccccc21` [compound 200] came in with an EM max of 759 and an EX max of 739.
